# Data taken from US10071077B2, “Use of enoximone in the treatment of atopic immune-related disorders, in pharmaceutical composition as well as in pharmaceutical preparation” (BREAKTHROUGH MEDICAL RESEARCH B.V., priority 2014, dated 2018).
# Legend:
# [1] = test system: Human PBMCs stimulated with tetanus toxoid (CD4 T-cells); type: cell-based
# [2] = metabolised to a less active sulfoxide, excreted via the kidneys; cited from earlier work
# [3] = test system: established HDM allergic airway inflammation; assay: Established HDM allergy model, treatment strategy 2; type: in vivo, C57bl/6 mice; conditions: 25 μg enoximone admixed with 5 μg HDM
# Experimental: (§1) To induce airway inflammation, mice were anaesthetized with isofluorane and treated intratracheally (i.t.) with 1-10 μg house dust mite (HDM; Greer Laboratories) allergen extract in 80 μL phosphate buffered saline (PBS) on day 0 or using PBS only. Ten days later, anesthetized mice were challenged with 1-10 μg HDM in 50 μL PBS intranasally (i.n.) for 5 consecutive days. Mice were sacrificed 24 hr after last challenge and broncho alveolar lavage was performed by flushing the lungs 3 times with 1 ml PBS containing Ethylenediaminetetraacetic acid (EDTA, Sigma-Aldrich).
# C57bl/6 mice were sensitized with 10 μg HDM on day 0 and challenged with 5 μg HDM for 5 days on day 10-14. Then mice were treated with 5 μg HDM admixed with 25 μg enoximone or diluent for 5 days on days 15-19. 24 hr after last challenge measurements were performed.
# Next, we attempted to determine whether enoximone is potent enough to suppress allergic inflammation when asthma is already fully established. Animals were challenged with an additional session of 5 challenges with HDM mimicking the situation in asthma patients. Asthma mice and PBS controls were then challenged again on five successive days by instilling a droplet of 50 μl PBS (PBS PBS dil), or HDM (5 μg) in 50 μl PBS (HDM HDM dil) or HDM (5 μg) in 50 μl PBS admixed with enoximone (25 μg) (HDM HDM enox)(FIG. 7A).
# (A) Experimental HDM asthma design showing intratracheal sensitization (s) of […] or PBS as control and intra nasal challenge (c) with 5 μg HDM followed by challenge and treatment (ct). (B) Quantification of flow cytometric analyses of eosinophils in BAL of PBS treated mice (black bars) and enoximone treated mice (light grey bars). Results are expressed as means±SEM. (C) Quantification of flow cytometric analyses of ILC2s, (D) CD3 and (E) macrophages in BAL. Results are expressed as means±SEM. n=4-8 animals per group. Statistical evaluations were performed only between different treatments of groups. (*p<0.05 or **p<0.01).
# [4] = test system: HDM driven allergic airway inflammation; assay: House dust mite (HDM) allergic airway inflammation model, treatment strategy 1 (allergy induction); type: in vivo, C57bl/6 mice; conditions: orally (2.5 and 0.25 μg), treatment during challenge, FIG. 5B
# [5] = test system: Human basophils stimulated with anti IgE; assay: Basophil degranulation assay; type: cell-based; conditions: anti IgE stimulation
# Experimental: PBMCs including basophils were treated with diluent or several doses of enoximone at 37° C. for half an hour. Next the cells were washed and incubated with anti IgE antibodies 5 µg/ml for 20 minutes at 37° C. for 20 minutes washed again at 4° C. and consequently stained for flowcytometric with CD123-BV650, CD203c-PE, CD107a-FITC, HLA-DR-PerCPCy5.5 and FcεRI-APC at 4° C. for 30 minutes. Cells were acquire with a LSRII and analyzed with Flowjo X. Basophils were identified as FcεRI+, CD123+ and HLA-DR− cells. Degranulated and/or activated basophils stained positive for CD203c and CD107a. 100% degranulated basophils were set as the % of degranulated basophils treated with diluent and stimulated with 5 µg/ml anti IgE. Proportion of inhibition was calculated as % of degranulated basophils divided by the maximal % of diluent treated degranulated basophils.
# FIG. 4 Human PBMCs including basophils were treated with diluent or several doses of enoximone and cells were activated by incubation with anti IgE antibodies. Data plotted show the mean proportion of inhibition was calculated as % degranulated basophils (CD123^+FceRI^+HLA-DR^− CD107a^+CD203c^+ cells) pretreated with enoximone divided by % of diluent treated degranulated basophils (n=3).
# [6] = test system: HDM allergic airway inflammation; assay: HDM asthma model, lower enoximone treatment frequency; type: in vivo, mice
# Experimental: as §1
# Next we investigate if it is possible to lower the active enoximone treatment frequency when given it admixed to the HDM challenge solution (FIG. 2A). We compare the daily treatment frequency with once in two days (each other day) and once in three days. Mice treated with HDM admixed with diluent show clear eosinophilic airway inflammation (FIG. 2B). […] Moreover along this line also numbers of T-cells drop when treated with enoximone (FIG. 2B). […] Moreover the proportion of IL-4 producing T-cells is lower when enoximone is given less frequently than daily (FIG. 3).
# (A) Experimental HDM asthma design showing intratracheal sensitisation (s) of 10 μg HDM or PBS as control and challenge (c) with 10 μg HDM intra nasal. The following schedules were used diluent (d) (5 μl) during challenge (for 5 days ddddd), enoximone (5 μl 5 mg/ml) during challenge (for 5 days eeeee), enoximone once in two days (edede) or (deded) and once in three days enoximone (edded). (B) Total cells and quantification of flow cytometric analyses of eosinophils and CD4 T-cells in BAL of PBS treated (black bars) and several frequencies of enoximone treated mice (gray bars). Results are expressed as means±SEM.
# FIG. 3 Quantification of flow cytometric analyses of cytokine producing CD4 T-cells and proportion of IL-4 positive CD4 T-cells in BAL. Results are expressed as means±SEM. n=3-8 animals per group. Statistical evaluations were performed only between different treatments of groups (*p<0.05).
smiles,measurement,setting,value
"CSc1ccc(C(=O)c2[nH]c(=O)[nH]c2C)cc1 [enoximone, 1,3-dihydro-4-methyl-5-[4-(methylthio)benzoyl]-2H-imidazol-2-on]",proliferation of CD4 positive T-cells (proportion of divided CD4 T-cells),[1],significantly reduced
same,half life,[2],approximately 4 hours
same,numbers of ILC2s in BAL,"[3]; days 15-19, FIG. 7C",significant reduction
same,numbers of T-cells in BAL,"[3]; days 15-19, FIG. 7D",significant reduction
same,numbers of macrophages in BAL,"[3]; days 15-19, FIG. 7E",significant reduction
same,eosinophil numbers in BAL,"[3]; days 15-19, started after the first 5 HDM challenges, FIG. 7B",strong significant reductions
same,"eosinophil numbers in BAL, HDM/PBS treated mice compared to enoximone treated mice",[4],significantly higher
same,inhibition at 20 µM,"[5]; Homo sapiens, 20 μM enoximone, FIG. 4, read-out: inhibition of basophil activation/degranulation (CD107a and CD203c positivity)",> 50%
same,inhibition at 1000 µM,"[5]; Homo sapiens, 1000 μM enoximone, FIG. 4, read-out: inhibition of basophil activation/degranulation (CD107a and CD203c positivity)",> 90%
same,basophil activation (CD107a and CD203c positivity),[5]; enoximone 20-1000 μM,reduced basophil activation
same,numbers of T-cells in BAL,"[6]; 25 μg enoximone admixed with HDM challenge, FIG. 2B",drop
same,"number of cytokine (IL-4, IL-5, IL-13, IL-17 and IFNγ) producing T-cells in BAL","[6]; 25 μg enoximone admixed with HDM challenge, FIG. 3",drop in number
same,eosinophilic inflammation,"[6]; 25 μg enoximone admixed with HDM challenge, given every day, FIG. 2B",clear reduction
same,eosinophilic inflammation,"[6]; 25 μg enoximone admixed with HDM challenge, once in three days, FIG. 2B",clear reduction
same,eosinophilic inflammation,"[6]; 25 μg enoximone admixed with HDM challenge, once in two days (each other day), FIG. 2B",clear reduction
same,proportion of IL-4 producing T-cells,"[6]; enoximone given less frequently than daily, FIG. 3",lower
